Where two headings read alike, the source gives them in different places.
Tests used:
Type in all cases: biochemical
[1] = target: Cathepsin S (Homo sapiens, UniProt P25774); experiment: Cathepsin S inhibition, fluorogenic peptide substrate kinetic assay;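 further: cleavage rate of a coumarin-labelled peptide substrate (50 µM) read as fluorescence increase at Ex 380 nm and Em 450 nm, relative to inhibitor-free control reactions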
[2] = target: Cathepsin L (Homo sapiens, UniProt P07711); experiment: Cathepsin L inhibition, fluorogenic peptide substrate kinetic assay (selectivity); details: ratio of cathepsin L inhibition constant to cathepsin S inhibition constant
Cathepsin L, sequence (P07711 114-333, species assumed): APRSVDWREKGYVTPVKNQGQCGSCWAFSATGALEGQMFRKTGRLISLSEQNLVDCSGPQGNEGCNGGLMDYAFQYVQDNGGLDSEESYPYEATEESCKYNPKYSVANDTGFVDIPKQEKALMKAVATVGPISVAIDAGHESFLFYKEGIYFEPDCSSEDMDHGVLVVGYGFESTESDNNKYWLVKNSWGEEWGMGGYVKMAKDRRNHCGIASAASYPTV

[3] = target: T1, Cathepsin K (Homo sapiens, UniProt P43235); experiment: Cathepsin K inhibition, fluorogenic peptide substrate kinetic assay (selectivity); details: ratio of cathepsin K inhibition constant to cathepsin S inhibition constant
T1 sequence (P43235 115-329): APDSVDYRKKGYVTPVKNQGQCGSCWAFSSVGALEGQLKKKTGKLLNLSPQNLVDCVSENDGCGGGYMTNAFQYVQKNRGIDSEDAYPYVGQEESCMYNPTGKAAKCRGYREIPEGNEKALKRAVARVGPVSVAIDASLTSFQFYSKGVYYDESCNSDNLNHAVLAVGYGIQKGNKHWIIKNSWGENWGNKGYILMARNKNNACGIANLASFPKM

[4] = target: Cathepsin B (Homo sapiens, UniProt P07858); experiment: Cathepsin B inhibition, fluorogenic peptide substrate kinetic assay (selectivity); details: ratio of cathepsin B inhibition constant to cathepsin S inhibition constant;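 further: value is the cathepsin B inhibition constant divided by the cathepsin S one, each from kinetic fluorescence readings (ex 380 nm, em 450 nm) of a 10 µM coumarin peptide substrate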
[5] = Cathepsin S inhibition constant, pH5.5, 20 minutes preincubation at room temperature, read-out: Ki Cat. S

Cathepsin S, sequence (P25774 115-331, species assumed): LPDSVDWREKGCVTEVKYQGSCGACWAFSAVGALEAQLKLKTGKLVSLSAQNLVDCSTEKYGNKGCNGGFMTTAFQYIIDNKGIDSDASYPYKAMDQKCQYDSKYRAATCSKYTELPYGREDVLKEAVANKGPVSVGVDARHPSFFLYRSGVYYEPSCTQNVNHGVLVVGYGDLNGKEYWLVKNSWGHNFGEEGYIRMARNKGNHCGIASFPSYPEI

For `C[C@@H](CNc1ccc(OC(F)(F)F)cc1)NC(=O)[C@@H](CC(=O)N1CCS(=O)(=O)CC1)CC1CCCCC1` [Example 58, 2-(R)-Cyclohexylmethyl-4-(1,1-dioxo-thiomorpholin-4-yl)-N-[1-(S)-methyl-2-(4-trifluoromethoxy-phenylamino)-ethyl]-4-oxo-butyramide], the Ki [1, 5] was 0.1 to 1 µM, the “Selectivity for Cat. S over Cat. L” value [2] was “+ (+, >10)” and the “Selectivity for Cat. S over Cat. K” value [3] was “++ (++, >100)”. The “Selectivity for Cat. S over Cat. B” value [4] was “++ (++, >100)”.
For `CC(C)[C@@H](CNc1ccc(OC(F)(F)F)cc1)NC(=O)[C@@H](CC(=O)N1CCOCC1)C1CCCCC1` [Example 35, 2-(S)-Cyclohexyl-N-{2-methyl-1-(S)-[(4-trifluoromethoxy-phenylamino)-methyl]-propyl}-4-morpholin-4-yl-4-oxo-butyramide], the Ki [1, 5] was < 0.1 µM, the “Selectivity for Cat. S over Cat. L” value [2] was “++ (++, >100)” and the “Selectivity for Cat. S over Cat. K” value [3] was “+ (+, >10)”. The “Selectivity for Cat. S over Cat. B” value [4] was “+++ (+++, >1000)”.
In the case of `CCC[C@@H](CNc1ccc(OC(F)(F)F)cc1)NC(=O)[C@@H](CC(=O)N1CCOCC1)CC1CCCCC1` [Example 20, 2-(R)-Cyclohexylmethyl-4-morpholin-4-yl-4-oxo-N-{1-(S)-[(4-trifluoromethoxy-phenylamino)-methyl]-butyl}-butyramide], the Ki [1] is reported as < 0.1 µM, the “Selectivity for Cat. S over Cat. L” value [2] is reported as “+ (+, >10)” and the “Selectivity for Cat. S over Cat. K” value [3] is reported as “+ (+, >10)”. The “Selectivity for Cat. S over Cat. B” value [4] was “+++ (+++, >1000)”.
For `CC(C)[C@@H](CNc1ccc(OC(F)(F)F)cc1)NC(=O)[C@@H](CC(=O)N1CCOCC1)c1ccc(F)cc1` [Example 41, 2-(S)-(4-Fluoro-phenyl)-N-{2-methyl-1-(S)-[(4-trifluoromethoxy-phenylamino)-methyl]-propyl}-4-morpholin-4-yl-4-oxo-butyramide], the Ki [1] was < 0.1 µM, the “Selectivity for Cat. S over Cat. L” value [2] was “++ (++, >100)” and the “Selectivity for Cat. S over Cat. K” value [3] was “+ (+, >10)”. The “Selectivity for Cat. S over Cat. B” value [4] was “+++ (+++, >1000)”.
For `C[C@@H](CN1CCc2cc(F)ccc21)NC(=O)[C@H](CC1CCCCC1)OC(=O)N1CCOCC1` [Example 12, Morpholine-4-carboxylic acid 2-cyclohexyl-1-(S)-[2-(5-fluoro-2,3-dihydro-indol-1-yl)-1-(S)-methyl-ethylcarbamoyl]-ethyl ester], the Ki [1, 5] was 0.1 to 1 µM, the “Selectivity for Cat. S over Cat. L” value [2] was “+ (+, >10)” and the “Selectivity for Cat. S over Cat. K” value [3] was “+ (+, >10)”. The “Selectivity for Cat. S over Cat. B” value [4] was “++ (++, >100)”.
For `Cc1cc(NCCNC(=O)[C@H](CCC(C)(C)C)CC(=O)N2CCOCC2)no1` [Example 49, (R)-5,5-Dimethyl-2-(2-morpholin-4-yl-2-oxo-ethyl)-hexanoic acid [2-(5-methyl-isoxazol-3-ylamino)-ethyl]-amide], the Ki [1, 5] was 1 to 10 µM, the “Selectivity for Cat. S over Cat. L” value [2] was “+ (+, >10)” and the “Selectivity for Cat. S over Cat. K” value [3] was “+ (+, >10)”. For the same compound, the “Selectivity for Cat. S over Cat. B” value [4] was “+ (+, >10)”.
`O=C(C[C@@H](CC1CCCCC1)C(=O)N1CCOCC1)NCCNc1ccc(F)cc1` [Example 9, 3-(R)-Cyclohexylmethyl-N-[2-(4-fluoro-phenylamino)-ethyl]-4-morpholin-4-yl-4-oxo-butyramide] was tested, and the Ki [1] was 1 to 10 µM, the “Selectivity for Cat. S over Cat. L” value [2] was “+ (+, >10)” and the “Selectivity for Cat. S over Cat. K” value [3] was “+ (+, >10)”. The “Selectivity for Cat. S over Cat. B” value [4] was “+ (+, >10)”.
In the case of `C[C@@H](CNc1ccc(OC(F)(F)F)cc1)NC(=O)[C@H](CCC(C)(C)C)CC(=O)N1CCOCC1` [Example 25, 5,5-Dimethyl-2-(R)-(2-morpholin-4-yl-2-oxo-ethyl)-hexanoic acid [1-(S)-methyl-2-(4-trifluoromethoxy-phenylamino)-ethyl]-amide], the Ki [1] is reported as 0.1 to 1 µM, the “Selectivity for Cat. S over Cat. L” value [2] is reported as “++ (++, >100)” and the “Selectivity for Cat. S over Cat. K” value [3] is reported as “++ (++, >100)”. The “Selectivity for Cat. S over Cat. B” value [4] was “++ (++, >100)”.
For `C[C@@H](CNc1ccc(OC(F)(F)F)cc1)NC(=O)[C@H](CS(=O)(=O)Cc1ccccc1)NC(=O)N1CCOCC1` [Example 18, Morpholine-4-carboxylic acid {1-(R)-[1-(S)-methyl-2-(4-trifluoromethoxy-phenylamino)-ethylcarbamoyl]-2-phenylmethanesulfonyl-ethyl}-amide], the Ki [1, 5] was < 0.1 µM, the “Selectivity for Cat. S over Cat. L” value [2] was “++ (++, >100)” and the “Selectivity for Cat. S over Cat. K” value [3] was “+++ (+++, >1000)”. The “Selectivity for Cat. S over Cat. B” value [4] was “++ (++, >100)”.
For `C[C@@H](CNc1ccc(OC(F)(F)F)cc1)NC(=O)[C@@H](CC(=O)N1CCOCC1)CC1CCC2(CC1)CC2` [Example 65, N-[1-(S)-Methyl-2-(4-trifluoromethoxy-phenylamino)-ethyl]-4-morpholin-4-yl-4-oxo-2-(R)-spiro[2.5]oct-6-ylmethyl-butyramide], the Ki [1, 5] was 0.1 to 1 µM, the “Selectivity for Cat. S over Cat. L” value [2] was “++ (++, >100)” and the “Selectivity for Cat. S over Cat. K” value [3] was “++ (++, >100)”. The “Selectivity for Cat. S over Cat. B” value [4] was “++ (++, >100)”.
In the case of `CC1(C)CN([C@H]2COC[C@@H]2NC(=O)O[C@@H](CC2CCCCC2)C(=O)N2CCOCC2)c2ccc(F)cc21` [Example 7, [4-(R)-(5-Fluoro-3,3-dimethyl-2,3-dihydro-indol-1-yl)-tetrahydro-furan-3-(R)-yl]-carbamic acid 1-(S)-cyclohexylmethyl-2-morpholin-4-yl-2-oxo-ethyl ester], the Ki [1, 5] is reported as 1 to 10 µM, the “Selectivity for Cat. S over Cat. L” value [2] is reported as “+ (+, >10)” and the “Selectivity for Cat. S over Cat. K” value [3] is reported as “+ (+, >10)”. For the same compound, the “Selectivity for Cat. S over Cat. B” value [4] was “+ (+, >10)”.
`O=C(NCCN1CCc2cc(F)ccc21)[C@H](CC1CCCCC1)NC(=O)N1CCOCC1` [Example 2, Morpholine-4-carboxylic acid {2-cyclohexyl-1-(S)-[2-(5-fluoro-2,3-dihydro-indol-1-yl)-ethylcarbamoyl]-ethyl}-amide] was tested, and the Ki [1, 5] was < 0.1 µM, the “Selectivity for Cat. S over Cat. L” value [2] was “+ (+, >10)” and the “Selectivity for Cat. S over Cat. K” value [3] was “++ (++, >100)”. The “Selectivity for Cat. S over Cat. B” value [4] was “+++ (+++, >1000)”.
With `C[C@@H](CNc1ccc(OC(F)(F)F)cc1)NC(=O)[C@@H](CC(=O)N1CCOCC1)c1ccc(C(F)(F)F)cc1` [Example 60, N-[1-(S)-Methyl-2-(4-trifluoromethoxy-phenylamino)-ethyl]-4-morpholin-4-yl-4-oxo-2-(S)-(4-trifluoromethyl-phenyl)-butyramide] the Ki [1] was 1 to 10 µM, the “Selectivity for Cat. S over Cat. L” value [2] was “+ (+, >10)” and the “Selectivity for Cat. S over Cat. K” value [3] was “+ (+, >10)”. The “Selectivity for Cat. S over Cat. B” value [4] was “+ (+, >10)”.
In the case of `COc1ccc(NCCNC(=O)[C@H](CC2CCCCC2)NC(=O)N2CCOCC2)cc1` [Example 4, Morpholine-4-carboxylic acid {2-cyclohexyl-1-(S)-[2-(4-methoxy-phenylamino)-ethylcarbamoyl]-ethyl}-amide], the Ki [1, 5] is reported as < 0.1 µM, the “Selectivity for Cat. S over Cat. L” value [2] is reported as “+ (+, >10)” and the “Selectivity for Cat. S over Cat. K” value [3] is reported as “++ (++, >100)”. For the same compound, the “Selectivity for Cat. S over Cat. B” value [4] was “+++ (+++, >1000)”.
For `COc1ccc(NC[C@H](C)NC(=O)[C@H](CC2CCCC2)NC(=O)N2CCOCC2)cc1` [Example 73, Morpholine-4-carboxylic acid {2-cyclopentyl-1-(S)-[2-(4-methoxy-phenylamino)-1-(S)-methyl-ethylcarbamoyl]-ethyl}-amide], the Ki [1, 5] was < 0.1 µM, the “Selectivity for Cat. S over Cat. L” value [2] was “+ (+, >10)” and the “Selectivity for Cat. S over Cat. K” value [3] was “+ (+, >10)”. The “Selectivity for Cat. S over Cat. B” value [4] was “++ (++, >100)”.
For `CC(C)[C@@H](CNc1ccc(OC(F)(F)F)cc1)NC(=O)[C@@H](CC(=O)N1CCOCC1)c1ccccc1` [Example 34, N-{2-Methyl-1-(S)-[(4-trifluoromethoxy-phenylamino)-methyl]-propyl}-4-morpholin-4-yl-4-oxo-2-(S)-phenyl-butyramide], the Ki [1] was < 0.1 µM, the “Selectivity for Cat. S over Cat. L” value [2] was “+ (+, >10)” and the “Selectivity for Cat. S over Cat. K” value [3] was “+ (+, >10)”. For the same compound, the “Selectivity for Cat. S over Cat. B” value [4] was “+++ (+++, >1000)”.
In the case of `COc1ccc(NCCNC(=O)[C@@H](CC(=O)N2CCOCC2)CC2CCCCC2)cc1` [Example 19, (R)-2-Cyclohexylmethyl-N-[2-(4-methoxy-phenylamino)-ethyl]-4-morpholin-4-yl-4-oxo-butyramide], the Ki [1, 5] is reported as 0.1 to 1 µM, the “Selectivity for Cat. S over Cat. L” value [2] is reported as “++ (++, >100)” and the “Selectivity for Cat. S over Cat. K” value [3] is reported as “++ (++, >100)”. The “Selectivity for Cat. S over Cat. B” value [4] was “++ (++, >100)”.
With `Cc1cc(NC[C@H](C)NC(=O)O[C@@H](CC2CCCCC2)C(=O)N2CCOCC2)no1` [Example 91, [1-(S)-Methyl-2-(5-methyl-isoxazol-3-ylamino)-ethyl]-carbamic acid 1-(S)-cyclohexylmethyl-2-morpholin-4-yl-2-oxo-ethyl ester] the Ki [1, 5] was 1 to 10 µM, the “Selectivity for Cat. S over Cat. L” value [2] was “+ (+, >10)” and the “Selectivity for Cat. S over Cat. K” value [3] was “+ (+, >10)”. The “Selectivity for Cat. S over Cat. B” value [4] was “+ (+, >10)”.

— US7732449B2, “Inhibitors of cathepsin S” (IRM LLC, priority 2003, dated 2010)
